Source: US12655184B2, “Labyrinthin-based peptides for cancer immunotherapies and uses thereof” (LABYRX IMMUNOLOGIC THERAPEUTICS (USA) LIMITED, priority 2018, dated 2026)
Ends that are not written are not given here.

Experiments:
Type in all cases: physicochemical
[1] = solubility by visual examination in ultrapure water, PBS and DMSO; settings: for Solubility, PBS (pH 7.4): 0.1 M PBS pH 7.4, visual examination
Protocol: The solubility of each labyrinthin-derived peptide candidate was assessed by visual examination in ultrapure water, 0.1 M PBS (PBS; pH 7.4), and dimethyl sulfoxide (DMSO; analytical grade). As reported in Table 4, a solubility of less than 0.1 mg/mL of solvent was defined as “Undissolved” and solubility of greater than or 0.1 mg/mL was defined as “Dissolved.” The concentration range of measured solubility is provided under the “Dissolved” classification where available (Table 4).

[2] = solubility tests in DMSO, normal saline and 0.2 M NaCl by visual examination; settings: for Solubility (dissolved Yes/No), 0.2M Sodium (NaCl): 0.2 M NaCl; for Solubility (dissolved Yes/No), 0.154M Sodium (NaCl): normal saline, 0.154 M NaCl
Protocol: Additional testing was completed to attempt to overcome the above-identified solubility issues. Results of the solubility tests performed for each labyrinthin-derived peptide candidate (SEQ ID NOS:29-32) are shown in Table 5. In short, all peptides were again dissolved in DMSO, confirming that the peptides had the capacity to dissolve in solution. Peptide solubility was then tested in normal saline (0.154 M sodium (NaCl)) and 0.2 M sodium (NaCl). Normal saline is generally an option as a solvent/diluent as use for such purpose is accepted by the […]. […] Additional solutions were tested to determine an alternative diluent to solubilize the candidate peptides, as determined by visual examination.

[3] = solubility in phosphate buffer with/without 0.9% NaCl, pH serially lowered with acetic acid, concentration remaining in solution
Protocol: In further solubility testing, two tubes of 1.1 mg peptide for each of the four candidate peptides target was dissolved into 1 mL phosphate buffer (pH 10) (with and without 0.9% NaCl). The peptide solutions were subsequently stored at 4° C. for several hours to dissolve the peptides thoroughly. Following centrifugation, the peptide concentration that remained in solution was measured. The solubility of all four peptide candidates under all tested condition in Table 6 as above 0.3 mg/mL, and for each peptide candidate the variability of solubility across the pH ranges tested was minimal.

[4] = DMSO analytical grade, visual examination, read-out: Solubility, DMSO
[5] = DMSO, read-out: concentration range of measured solubility, DMSO
[6] = pH 7.4, 0.1 M PBS pH 7.4, visual examination, read-out: Solubility, PBS (pH 7.4)
[7] = pH 7.4, 0.1 M PBS pH 7.4, read-out: concentration range of measured solubility, PBS (pH 7.4)
[8] = ultrapure water, visual examination
[9] = ultrapure water, visual examination, read-out: Solubility, Ultrapure water
[10] = pH 4, PBS with 0.9% NaCl, pH 4, read-out: Solubility pH 4
[11] = pH 4, PBS without NaCl, pH 4, read-out: Solubility pH 4
[12] = pH 5, PBS with 0.9% NaCl, pH 5, read-out: Solubility pH 5
[13] = pH 5, PBS without NaCl, pH 5, read-out: Solubility pH 5
[14] = pH 5.5, PBS with 0.9% NaCl, pH 5.5, read-out: Solubility pH 5.5
[15] = pH 5.5, PBS without NaCl, pH 5.5, read-out: Solubility pH 5.5
[16] = pH 6, PBS with 0.9% NaCl, pH 6, read-out: Solubility pH 6
[17] = pH 6, PBS without NaCl, pH 6, read-out: Solubility pH 6
[18] = pH 6.5, PBS with 0.9% NaCl, pH 6.5, read-out: Solubility pH 6.5
[19] = pH 6.5, PBS without NaCl, pH 6.5, read-out: Solubility pH 6.5
[20] = pH 7, PBS with 0.9% NaCl, pH 7, read-out: Solubility pH 7
[21] = pH 7, PBS without NaCl, pH 7, read-out: Solubility pH 7
[22] = pH 7.5, PBS with 0.9% NaCl, pH 7.5, read-out: Solubility pH 7.5
[23] = pH 7.5, PBS without NaCl, pH 7.5, read-out: Solubility pH 7.5
[24] = pH 8, PBS with 0.9% NaCl, pH 8, read-out: Solubility pH 8
[25] = pH 8, PBS without NaCl, pH 8, read-out: Solubility pH 8
[26] = pH 8.5, PBS with 0.9% NaCl, pH 8.5, read-out: Solubility pH 8.5
[27] = pH 8.5, PBS without NaCl, pH 8.5, read-out: Solubility pH 8.5
[28] = pH 9, PBS with 0.9% NaCl, pH 9, read-out: Solubility pH 9
[29] = pH 9, PBS without NaCl, pH 9, read-out: Solubility pH 9
[30] = pH 10, PBS with 0.9% NaCl, pH 10, read-out: Solubility pH 10
[31] = pH 10, PBS without NaCl, pH 10, read-out: Solubility pH 10

Sequence	solubility [1, 4] [µg/mL]	solubility [1, 6] [µg/mL]	solubility [1, 9] [µg/mL]	Solubility (dissolved Yes/No), 0.2M Sodium (NaCl) [2]	Solubility (dissolved Yes/No), DMSO [2]	Solubility (dissolved Yes/No), 0.154M Sodium (NaCl) [2]	solubility [3, 10] [µg/mL]	solubility [3, 11] [µg/mL]	solubility [3, 12] [µg/mL]	solubility [3, 13] [µg/mL]	solubility [3, 14] [µg/mL]	solubility [3, 15] [µg/mL]	solubility [3, 16] [µg/mL]	solubility [3, 17] [µg/mL]	solubility [3, 18] [µg/mL]	solubility [3, 19] [µg/mL]	solubility [3, 20] [µg/mL]	solubility [3, 21] [µg/mL]	solubility [3, 22] [µg/mL]	solubility [3, 23] [µg/mL]	other results
DMEEMMSEQENPDSSEPVVEDE [SEQ ID NO: 30]	> 100	> 100	< 100	Yes	Yes	Yes	496	647	510	669	510	667	529	674	498	673	539	710	555	712	solubility [1, 5]: ≤ 10000 µg/mL; solubility [1, 7]: ≤ 10000 µg/mL; Solubility, Ultrapure water [1, 8]: undissolved; solubility [3, 24]: 542 µg/mL; solubility [3, 25]: 720 µg/mL; solubility [3, 26]: 540 µg/mL; solubility [3, 27]: 730 µg/mL; solubility [3, 28]: 548 µg/mL; solubility [3, 29]: 738 µg/mL; solubility [3, 30]: 552 µg/mL; solubility [3, 31]: 726 µg/mL
DSQVIVEEVSIFPVEEQQEVPPD [SEQ ID NO: 32]	> 100	< 100	< 100	Yes	Yes	No	382	387	401	397	412	337	411	404	406	407	412	402	412	415	Solubility, PBS (pH 7.4) [1]: did not improve solubility; solubility [1, 5]: ≤ 10000 µg/mL; Solubility, Ultrapure water [1, 8]: undissolved; Solubility (dissolved Yes/No), 0.154M Sodium (NaCl) ([2]; listed as SEQ ID NO:32): did not dissolve; solubility [3, 24]: 415 µg/mL; solubility [3, 25]: 421 µg/mL; solubility [3, 26]: 433 µg/mL; solubility [3, 27]: 424 µg/mL; solubility [3, 28]: 426 µg/mL; solubility [3, 29]: 445 µg/mL; solubility [3, 30]: 413 µg/mL; solubility [3, 31]: 419 µg/mL
GEDLQQEDGPTGEPQQEDDEFL [SEQ ID NO: 29]	> 100	> 100	> 100	Yes	Yes	Yes	687	731	694	738	695	738	695	742	706	753	701	748	703	757	solubility [1, 7]: ≤ 10000 µg/mL; solubility ([1]; ultrapure water, read-out: concentration range of measured solubility, Ultrapure water): ≤ 10000 µg/mL; solubility [3, 24]: 707 µg/mL; solubility [3, 25]: 756 µg/mL; solubility [3, 26]: 702 µg/mL; solubility [3, 27]: 762 µg/mL; solubility [3, 28]: 707 µg/mL; solubility [3, 29]: 757 µg/mL; solubility [3, 30]: 708 µg/mL; solubility [3, 31]: 765 µg/mL
NEGIEITEVTAPPEDNPVEDSQ [SEQ ID NO: 31]	> 100	< 100	< 100	Yes	Yes	No	806	777	813	802	826	819	833	773	831	769	838	825	852	812	Solubility, PBS (pH 7.4) [1]: did not improve solubility; solubility [1, 5]: ≤ 5000 µg/mL; Solubility, Ultrapure water [1, 8]: undissolved; Solubility (dissolved Yes/No), 0.154M Sodium (NaCl) ([2]; listed as SEQ ID NO:31): did not dissolve; solubility [3, 24]: 861 µg/mL; solubility [3, 25]: 847 µg/mL; solubility [3, 26]: 848 µg/mL; solubility [3, 27]: 854 µg/mL; solubility [3, 28]: 866 µg/mL; solubility [3, 29]: 857 µg/mL; solubility [3, 30]: 881 µg/mL; solubility [3, 31]: 849 µg/mL
